Experiments:
Assay in all cases: scanMAX kinase assay panel
Format in all cases: binding
CDK4-cyclinD3 = biological target: T1, CDK4-cyclinD3 (Homo sapiens, UniProt P11802); conditions: read-out: control percentage (% control)
T1 construct: purchased DiscoverX (scanMAX panel, contract assay)
Method: (§1) The activities of the compounds according to the present invention to more diverse enzymes were evaluated. Specifically, it was decided that the enzyme selectivity of Example 74 selected from the compounds of Examples 1 to 129 was measured at the request of DiscoverX, and the experiment was conducted using a scanMAX™ kinase assay panel. At this time, as a drug to treat the enzyme, a solution prepared by dissolving in DMSO at a concentration of 1 μM was used, and the control percentage (% control) was determined by the method of Equation 1 below, and the results were shown in Table 2 below.
(§2) In Equation above, the positive control and negative control mean compounds showing control percentages of 0% and 100% as DMSO, respectively.

LOK = biological target: T2, LOK (Homo sapiens, UniProt O94804); conditions: read-out: control percentage (% control)
T2 construct: purchased DiscoverX scanMAX kinase assay panel
Method: as §1, §2

EGFR(L858R) = biological target: T3, EGFR(L858R) (Homo sapiens, UniProt P00533, L858R); conditions: read-out: control percentage (% control)
T3 construct: purchased DiscoverX scanMAX kinase assay panel
Method: as §1, §2

CDKL2 = biological target: T4, CDKL2 (Homo sapiens, UniProt Q92772); conditions: read-out: control percentage (% control)
T4 construct: purchased DiscoverX (scanMAX panel, contract assay)
Method: as §1, §2

CLK1 = biological target: T5, CLK1 (Homo sapiens, UniProt P49759); conditions: read-out: control percentage (% control)
T5 construct: purchased DiscoverX (scanMAX panel, contract assay)
Method: as §1, §2

MAP4K4 = biological target: T6, MAP4K4 (Homo sapiens, UniProt O95819); conditions: read-out: control percentage (% control)
T6 construct: purchased DiscoverX scanMAX kinase assay panel
Method: as §1, §2

CIT = biological target: T7, CIT (Homo sapiens, UniProt O14578); conditions: read-out: control percentage (% control)
T7 construct: purchased DiscoverX (scanMAX panel, contract assay)
Method: as §1, §2

KIT(L576P) = biological target: T8, KIT(L576P) (Homo sapiens, UniProt P10721, L576P); conditions: read-out: control percentage (% control)
T8 construct: purchased DiscoverX scanMAX kinase assay panel
T8 sequence (P10721 26-976 L576P): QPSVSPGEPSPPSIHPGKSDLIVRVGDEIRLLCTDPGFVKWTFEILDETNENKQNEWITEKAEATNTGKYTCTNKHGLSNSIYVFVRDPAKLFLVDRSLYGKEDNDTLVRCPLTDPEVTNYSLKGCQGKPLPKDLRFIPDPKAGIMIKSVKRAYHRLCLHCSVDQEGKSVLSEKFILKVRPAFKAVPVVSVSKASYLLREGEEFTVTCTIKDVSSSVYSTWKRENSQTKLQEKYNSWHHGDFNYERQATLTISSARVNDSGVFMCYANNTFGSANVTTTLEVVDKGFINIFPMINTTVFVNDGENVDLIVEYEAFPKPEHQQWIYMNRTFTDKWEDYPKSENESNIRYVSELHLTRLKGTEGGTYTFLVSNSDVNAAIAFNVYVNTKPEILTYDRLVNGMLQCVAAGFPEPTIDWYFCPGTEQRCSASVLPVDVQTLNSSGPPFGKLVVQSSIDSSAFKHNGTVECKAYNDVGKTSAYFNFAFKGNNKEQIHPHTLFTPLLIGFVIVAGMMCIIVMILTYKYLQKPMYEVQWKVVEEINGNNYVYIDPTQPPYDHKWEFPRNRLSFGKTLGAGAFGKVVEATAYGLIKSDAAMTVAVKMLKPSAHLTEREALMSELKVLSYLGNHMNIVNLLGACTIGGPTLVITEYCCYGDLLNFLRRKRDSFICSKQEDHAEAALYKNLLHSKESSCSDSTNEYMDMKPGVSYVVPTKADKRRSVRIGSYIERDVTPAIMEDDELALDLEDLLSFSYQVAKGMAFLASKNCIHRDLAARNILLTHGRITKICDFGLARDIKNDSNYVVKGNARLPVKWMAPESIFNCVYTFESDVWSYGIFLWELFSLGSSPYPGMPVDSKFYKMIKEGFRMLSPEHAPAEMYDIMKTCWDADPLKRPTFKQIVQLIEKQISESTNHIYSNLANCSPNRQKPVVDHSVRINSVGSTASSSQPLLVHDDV
Method: as §1, §2

MARK3 = biological target: T9, MARK3 (Homo sapiens, UniProt P27448); conditions: read-out: control percentage (% control)
T9 construct: purchased DiscoverX scanMAX kinase assay panel
Method: as §1, §2

CSNK1G2 = biological target: T10, CSNK1G2 (Homo sapiens, UniProt P78368); conditions: read-out: control percentage (% control)
T10 construct: purchased DiscoverX (scanMAX panel, contract assay)
Method: as §1, §2

EPHB4 = biological target: T11, EPHB4 (Homo sapiens, UniProt P54760); conditions: read-out: control percentage (% control)
T11 construct: purchased DiscoverX scanMAX kinase assay panel
T11 sequence (P54760 16-987): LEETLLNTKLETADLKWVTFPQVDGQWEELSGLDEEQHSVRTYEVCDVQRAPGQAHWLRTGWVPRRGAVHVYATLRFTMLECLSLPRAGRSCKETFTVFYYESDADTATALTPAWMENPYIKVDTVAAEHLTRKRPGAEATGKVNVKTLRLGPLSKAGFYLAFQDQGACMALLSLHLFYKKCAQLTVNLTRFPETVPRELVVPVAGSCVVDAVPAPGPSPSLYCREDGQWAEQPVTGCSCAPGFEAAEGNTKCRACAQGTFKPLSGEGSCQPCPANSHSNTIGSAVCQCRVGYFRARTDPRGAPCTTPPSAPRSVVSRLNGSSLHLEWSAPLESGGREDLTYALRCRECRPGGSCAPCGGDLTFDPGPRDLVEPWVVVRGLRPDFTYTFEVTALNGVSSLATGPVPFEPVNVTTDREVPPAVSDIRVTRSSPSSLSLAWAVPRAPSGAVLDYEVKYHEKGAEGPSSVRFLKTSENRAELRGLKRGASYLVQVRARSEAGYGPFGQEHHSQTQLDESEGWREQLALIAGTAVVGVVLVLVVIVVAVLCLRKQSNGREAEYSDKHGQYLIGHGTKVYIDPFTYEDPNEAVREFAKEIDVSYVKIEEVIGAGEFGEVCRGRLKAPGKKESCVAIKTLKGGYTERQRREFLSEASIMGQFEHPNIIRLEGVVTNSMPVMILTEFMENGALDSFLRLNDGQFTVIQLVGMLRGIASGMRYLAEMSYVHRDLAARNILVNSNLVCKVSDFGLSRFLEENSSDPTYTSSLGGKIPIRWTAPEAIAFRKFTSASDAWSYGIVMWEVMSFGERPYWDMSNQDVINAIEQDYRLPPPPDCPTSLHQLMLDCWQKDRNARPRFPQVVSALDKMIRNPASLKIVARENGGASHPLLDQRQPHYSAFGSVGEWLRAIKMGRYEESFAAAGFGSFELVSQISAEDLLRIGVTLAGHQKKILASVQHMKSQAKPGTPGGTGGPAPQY
Method: as §1, §2

MAP4K2 = biological target: T12, MAP4K2 (Homo sapiens, UniProt Q12851); conditions: read-out: control percentage (% control)
T12 construct: purchased DiscoverX scanMAX kinase assay panel
Method: as §1, §2

[1] = biological target: T13, ABL1(T315I)-nonphosphorylated (Homo sapiens, UniProt P00519, T315I); conditions: read-out: control percentage (% control)
T13 construct: purchased DiscoverX (scanMAX panel, contract assay)
Method: as §1, §2

NEK10 = biological target: T14, NEK10 (Homo sapiens, UniProt Q6ZWH5); conditions: read-out: control percentage (% control)
T14 construct: purchased DiscoverX scanMAX kinase assay panel
Method: as §1, §2

[2] = biological target: T15, RSK3(Kin.Dom.2-C-terminal) (Homo sapiens, UniProt Q15349); conditions: read-out: control percentage (% control)
T15 construct: RSK3(Kin.Dom.2-C-terminal); purchased DiscoverX scanMAX kinase assay panel
Method: as §1, §2

RIOK1 = biological target: T16, RIOK1 (Homo sapiens, UniProt Q9BRS2); conditions: read-out: control percentage (% control)
T16 construct: purchased DiscoverX scanMAX kinase assay panel
Method: as §1, §2

CDK4 = biological target: T17, CDK4 (Homo sapiens, UniProt P11802); conditions: read-out: control percentage (% control)
T17 construct: purchased DiscoverX (scanMAX panel, contract assay)
Method: as §1, §2

[3] = biological target: T18, TYK2(JH1domain-catalytic) (Homo sapiens, UniProt P29597); conditions: read-out: control percentage (% control)
T18 construct: TYK2(JH1domain-catalytic); purchased DiscoverX
Method: as §1, §2

MAP4K3 = biological target: T19, MAP4K3 (Homo sapiens, UniProt Q8IVH8); conditions: read-out: control percentage (% control)
T19 construct: purchased DiscoverX scanMAX kinase assay panel
T19 sequence (Q8IVH8 whole entry): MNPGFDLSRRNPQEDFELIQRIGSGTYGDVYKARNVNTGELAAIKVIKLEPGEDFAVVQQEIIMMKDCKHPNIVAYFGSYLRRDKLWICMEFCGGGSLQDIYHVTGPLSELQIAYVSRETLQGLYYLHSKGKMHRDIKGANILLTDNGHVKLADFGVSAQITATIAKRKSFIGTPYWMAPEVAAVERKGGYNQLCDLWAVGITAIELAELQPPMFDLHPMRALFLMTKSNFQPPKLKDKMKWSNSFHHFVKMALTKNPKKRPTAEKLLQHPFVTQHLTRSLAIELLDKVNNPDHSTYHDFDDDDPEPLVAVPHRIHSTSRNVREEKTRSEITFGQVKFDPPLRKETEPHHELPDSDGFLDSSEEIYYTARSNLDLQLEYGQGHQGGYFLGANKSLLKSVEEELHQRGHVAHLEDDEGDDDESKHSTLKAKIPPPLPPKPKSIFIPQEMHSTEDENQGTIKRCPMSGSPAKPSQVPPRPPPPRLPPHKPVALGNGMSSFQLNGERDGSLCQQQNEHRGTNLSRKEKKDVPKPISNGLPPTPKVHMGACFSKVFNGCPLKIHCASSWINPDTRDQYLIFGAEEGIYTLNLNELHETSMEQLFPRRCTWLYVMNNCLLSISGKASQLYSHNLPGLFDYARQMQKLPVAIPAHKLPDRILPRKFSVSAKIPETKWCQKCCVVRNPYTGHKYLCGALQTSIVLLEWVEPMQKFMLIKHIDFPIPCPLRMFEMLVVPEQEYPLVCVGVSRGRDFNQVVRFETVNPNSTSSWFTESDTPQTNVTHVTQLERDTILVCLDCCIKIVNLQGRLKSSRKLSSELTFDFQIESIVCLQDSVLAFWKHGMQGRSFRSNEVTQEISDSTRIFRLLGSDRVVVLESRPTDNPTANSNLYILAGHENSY
Method: as §1, §2

RET(V804M) = biological target: T20, RET(V804M) (Homo sapiens, UniProt P07949, V804M); conditions: read-out: control percentage (% control)
T20 construct: purchased DiscoverX scanMAX kinase assay panel
Method: as §1, §2

FLT3(D835Y) = biological target: T21, FLT3(D835Y) (Homo sapiens, UniProt P36888, D835Y); conditions: read-out: control percentage (% control)
T21 construct: purchased DiscoverX scanMAX kinase assay panel
Method: as §1, §2

LTK = biological target: T22, LTK (Homo sapiens, UniProt P29376); conditions: read-out: control percentage (% control)
T22 construct: purchased DiscoverX scanMAX kinase assay panel
Method: as §1, §2

BIKE = biological target: T23, BIKE (Homo sapiens, UniProt Q9NSY1); conditions: read-out: control percentage (% control)
T23 construct: purchased DiscoverX (scanMAX panel, contract assay)
Method: as §1, §2

ROCK1 = biological target: T24, ROCK1 (Homo sapiens, UniProt Q13464); conditions: read-out: control percentage (% control)
T24 construct: purchased DiscoverX scanMAX kinase assay panel
T24 sequence (Q13464 whole entry): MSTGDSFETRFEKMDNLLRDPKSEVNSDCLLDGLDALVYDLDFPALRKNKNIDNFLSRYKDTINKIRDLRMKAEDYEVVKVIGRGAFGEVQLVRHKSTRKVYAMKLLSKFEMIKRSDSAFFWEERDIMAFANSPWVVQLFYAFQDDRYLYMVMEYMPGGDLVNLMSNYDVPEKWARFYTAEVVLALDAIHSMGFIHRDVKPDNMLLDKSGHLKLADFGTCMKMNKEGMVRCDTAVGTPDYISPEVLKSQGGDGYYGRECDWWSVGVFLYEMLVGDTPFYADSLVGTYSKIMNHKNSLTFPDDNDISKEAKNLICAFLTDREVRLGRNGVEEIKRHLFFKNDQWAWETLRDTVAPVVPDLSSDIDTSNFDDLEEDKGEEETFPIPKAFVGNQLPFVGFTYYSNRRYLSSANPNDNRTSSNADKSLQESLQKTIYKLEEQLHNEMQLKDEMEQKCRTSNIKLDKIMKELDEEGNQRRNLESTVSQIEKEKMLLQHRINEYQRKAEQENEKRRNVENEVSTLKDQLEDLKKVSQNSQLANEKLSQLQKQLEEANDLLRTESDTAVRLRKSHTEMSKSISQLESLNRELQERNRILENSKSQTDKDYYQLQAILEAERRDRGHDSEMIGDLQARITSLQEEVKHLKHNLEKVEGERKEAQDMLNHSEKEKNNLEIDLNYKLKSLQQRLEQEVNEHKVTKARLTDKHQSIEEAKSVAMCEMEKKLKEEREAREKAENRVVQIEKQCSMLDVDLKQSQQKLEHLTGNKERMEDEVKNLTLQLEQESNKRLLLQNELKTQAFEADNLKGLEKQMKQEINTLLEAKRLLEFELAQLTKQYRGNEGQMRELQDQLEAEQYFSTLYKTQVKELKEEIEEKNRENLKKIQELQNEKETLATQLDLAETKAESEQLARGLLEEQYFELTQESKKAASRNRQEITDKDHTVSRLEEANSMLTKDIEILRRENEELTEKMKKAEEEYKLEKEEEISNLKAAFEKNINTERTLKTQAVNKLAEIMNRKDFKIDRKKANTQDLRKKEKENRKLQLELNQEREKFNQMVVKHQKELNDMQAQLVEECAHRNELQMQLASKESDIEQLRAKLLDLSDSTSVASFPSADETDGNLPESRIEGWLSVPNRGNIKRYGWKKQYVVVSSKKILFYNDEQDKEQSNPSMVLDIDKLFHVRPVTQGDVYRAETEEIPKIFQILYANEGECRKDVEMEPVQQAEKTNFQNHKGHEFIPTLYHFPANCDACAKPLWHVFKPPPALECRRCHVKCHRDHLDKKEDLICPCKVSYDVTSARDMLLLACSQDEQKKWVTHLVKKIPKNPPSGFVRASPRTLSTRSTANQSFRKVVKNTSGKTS
Method: as §1, §2

FLT3(ITD, D835V) = conditions: 1 μM
Method: as §1, §2

MLK1 = biological target: T25, MLK1 (Homo sapiens, UniProt P80192); conditions: read-out: control percentage (% control)
T25 construct: purchased DiscoverX scanMAX kinase assay panel
Method: as §1, §2

ROCK2 = biological target: T26, ROCK2 (Homo sapiens, UniProt O75116); conditions: read-out: control percentage (% control)
T26 construct: purchased DiscoverX scanMAX kinase assay panel
Method: as §1, §2

PIK4CB = biological target: T27, PIK4CB (Homo sapiens, UniProt Q9UBF8); conditions: read-out: control percentage (% control)
T27 construct: purchased DiscoverX scanMAX kinase assay panel
T27 sequence (Q9UBF8 whole entry): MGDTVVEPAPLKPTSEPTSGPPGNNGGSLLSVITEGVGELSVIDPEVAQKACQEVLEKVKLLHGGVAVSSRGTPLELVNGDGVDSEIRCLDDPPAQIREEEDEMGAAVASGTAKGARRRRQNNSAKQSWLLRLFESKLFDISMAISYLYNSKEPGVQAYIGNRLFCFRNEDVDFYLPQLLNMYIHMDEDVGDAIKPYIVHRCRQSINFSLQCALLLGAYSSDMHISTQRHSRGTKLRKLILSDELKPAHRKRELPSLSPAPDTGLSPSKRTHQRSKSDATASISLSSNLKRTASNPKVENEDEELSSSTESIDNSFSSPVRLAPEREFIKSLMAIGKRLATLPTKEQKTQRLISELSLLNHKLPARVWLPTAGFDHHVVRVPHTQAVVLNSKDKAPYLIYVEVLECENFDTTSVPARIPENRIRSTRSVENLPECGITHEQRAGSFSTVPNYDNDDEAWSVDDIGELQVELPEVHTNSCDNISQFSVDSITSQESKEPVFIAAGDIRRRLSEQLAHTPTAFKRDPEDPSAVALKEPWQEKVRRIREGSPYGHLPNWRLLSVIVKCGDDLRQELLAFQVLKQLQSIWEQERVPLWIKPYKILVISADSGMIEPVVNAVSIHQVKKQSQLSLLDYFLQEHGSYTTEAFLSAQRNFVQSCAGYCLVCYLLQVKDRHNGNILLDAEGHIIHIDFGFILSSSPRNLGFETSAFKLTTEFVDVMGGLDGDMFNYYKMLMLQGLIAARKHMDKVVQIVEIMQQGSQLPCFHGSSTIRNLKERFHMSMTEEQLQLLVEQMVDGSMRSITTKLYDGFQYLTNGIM
Method: as §1, §2

FLT3(ITD, F691L) = conditions: 1 μM
Method: as §1, §2

SLK = biological target: T28, SLK (Homo sapiens, UniProt Q9H2G2); conditions: read-out: control percentage (% control)
T28 construct: purchased DiscoverX
Method: as §1, §2

DLK = biological target: T29, DLK (Homo sapiens, UniProt Q12852); conditions: read-out: control percentage (% control)
T29 construct: purchased DiscoverX scanMAX kinase assay panel
Method: as §1, §2

RET(V804L) = biological target: T30, RET(V804L) (Homo sapiens, UniProt P07949, V804L); conditions: read-out: control percentage (% control)
T30 construct: purchased DiscoverX scanMAX kinase assay panel
Method: as §1, §2

CDK7 = biological target: T31, CDK7 (Homo sapiens, UniProt P50613); conditions: read-out: control percentage (% control)
T31 construct: purchased DiscoverX (scanMAX panel, contract assay)
Method: as §1, §2

DCAMKL3 = biological target: T32, DCAMKL3 (Homo sapiens, UniProt Q9C098); conditions: read-out: control percentage (% control)
T32 construct: purchased DiscoverX (scanMAX panel, contract assay)
Method: as §1, §2

FLT3 = biological target: T33, FLT3 (Homo sapiens, UniProt P36888); conditions: read-out: control percentage (% control)
T33 construct: purchased DiscoverX scanMAX kinase assay panel
Method: as §1, §2

Which remaining binding at 1 µM (CDK4-cyclinD3) does the source give for `CN1CCN(c2ccc(Nc3nc(N4OCC[C@H]4c4ccccc4)c4cc[nH]c4n3)cc2)CC1` [Example 74, (S)-N-(4-(4-methylpiperazin-1-yl)phenyl)-4-(3-phenylisoxazolidin-2-yl)-7H-pyrrolo[2,3-d]pyrimidin-2-amine] here?
Its remaining binding at 1 µM is 3%.

And the remaining binding at 1 µM (LOK)?
The remaining binding at 1 µM was 8.7%.

And the remaining binding at 1 µM (EGFR(L858R))?
Its remaining binding at 1 µM is 20%.

And the remaining binding at 1 µM (CDKL2)?
Its remaining binding at 1 µM is 8.2%.

What about the remaining binding at 1 µM (CLK1) of the same compound?
Its remaining binding at 1 µM is 3.4%.

And the remaining binding at 1 µM (MAP4K4)?
Its remaining binding at 1 µM is 30%.

And the remaining binding at 1 µM (CIT)?
Its remaining binding at 1 µM is 0.3%.

What about the remaining binding at 1 µM (KIT(L576P)) of the same compound?
The remaining binding at 1 µM was 31%.

And the remaining binding at 1 µM (MARK3)?
Its remaining binding at 1 µM is 5.3%.

And the remaining binding at 1 µM (CSNK1G2)?
Its remaining binding at 1 µM is 21%.

And the remaining binding at 1 µM (EPHB4)?
The remaining binding at 1 µM was 31%.

What about the remaining binding at 1 µM (MAP4K2) of the same compound?
The remaining binding at 1 µM was 12%.

What about the remaining binding at 1 µM [1] of the same compound?
Its remaining binding at 1 µM is 29%.

What about the remaining binding at 1 µM (NEK10) of the same compound?
Its remaining binding at 1 µM is 0%.

What about the remaining binding at 1 µM [2] of the same compound?
Its remaining binding at 1 µM is 17%.

And the remaining binding at 1 µM (RIOK1)?
The remaining binding at 1 µM was 5.5%.

What about the remaining binding at 1 µM (CDK4) of the same compound?
The remaining binding at 1 µM was 10%.

What about the remaining binding at 1 µM [3] of the same compound?
The remaining binding at 1 µM was 5.6%.

What about the remaining binding at 1 µM (MAP4K3) of the same compound?
The remaining binding at 1 µM was 13%.

What about the remaining binding at 1 µM (RET(V804M)) of the same compound?
Its remaining binding at 1 µM is 3.9%.

What about the remaining binding at 1 µM (FLT3(D835Y)) of the same compound?
Its remaining binding at 1 µM is 0.15%.

And the remaining binding at 1 µM (LTK)?
The remaining binding at 1 µM was 27%.

And the remaining binding at 1 µM (BIKE)?
Its remaining binding at 1 µM is 1.8%.

What about the remaining binding at 1 µM (ROCK1) of the same compound?
Its remaining binding at 1 µM is 11%.

And the “control percentage (% control)” value (FLT3(ITD, D835V))?
The value was 0%.

What about the remaining binding at 1 µM (MLK1) of the same compound?
Its remaining binding at 1 µM is 24%.

What about the remaining binding at 1 µM (ROCK2) of the same compound?
The remaining binding at 1 µM was 8%.

And the remaining binding at 1 µM (PIK4CB)?
Its remaining binding at 1 µM is 16%.

What about the “control percentage (% control)” value (FLT3(ITD, F691L)) of the same compound?
The value was 0%.

What about the remaining binding at 1 µM (SLK) of the same compound?
The remaining binding at 1 µM was 0.25%.

What about the remaining binding at 1 µM (DLK) of the same compound?
The remaining binding at 1 µM was 9.2%.

And the remaining binding at 1 µM (RET(V804L))?
Its remaining binding at 1 µM is 5.3%.

And the remaining binding at 1 µM (CDK7)?
The remaining binding at 1 µM was 21%.

What about the remaining binding at 1 µM (DCAMKL3) of the same compound?
Its remaining binding at 1 µM is 15%.

And the remaining binding at 1 µM (FLT3)?
Its remaining binding at 1 µM is 3.9%.

From US20220242870A1, “HETEROCYCLE-FUSED PYRIMIDINE DERIVATIVE AND USE THEREOF” (VORONOI Inc., priority 2019, published 2022)
